From patent US20240010639A1, “TRIAZINE DIONE DERIVATIVE, PREPARATION METHOD THEREFOR AND APPLICATION THEREOF IN MEDICINE” (Jiangsu Hengrui Pharmaceuticals Co., Ltd., priority 2020, published 2024)
Where two headings read alike, the source gives them in different places.

Tests used:
[1] = Pharmacokinetic evaluation in beagles; format: in vivo; conditions: for AUC: read-out: Area under curve AUC; for half-life: read-out: Half-life T1/2 (converted); for Cmax: read-out: Plasma concentration Cmax; for MRT: read-out: Residence time MRT
Protocol: With beagles as test animals, the plasma concentrations of the test compounds were measured by LC/MS/MS at different time points after intragastric administration and intravenous injection. The pharmacokinetic performance of the compound disclosed herein was studied in beagles and its pharmacokinetic profile was evaluated.
Pharmacokinetics of the compound of Example 16 in beagles: 8 beagles, an equal number of males and females, divided into 2 groups of 4, provided by Shanghai Medicilon Inc. Pharmacokinetics of compound MYK-461 in beagles: 6 beagles, male, divided into 2 groups of 3, provided by Shanghai Medicilon Inc.
A certain amount of the compound of Example 16 was measured out, and 5% DMSO, 30% PG, 30% PEG400 and 35% normal saline were added to prepare a clear solution.
A certain amount of compound MYK-461 was measured out, and 5% DMSO, 20% PG, 20% PEG400 and 55% normal saline were added to prepare a clear solution.
Beagles were fasted overnight and then given compounds by intragastric administration and intravenous injection at doses of 2 mg/kg and 0.5 mg/kg, respectively, and at volumes of 5 mL/kg and 2 mL/kg, respectively.
1.0-mL blood samples were collected from the jugular veins or forelimb veins of the animals in the intragastric administration group before administration and 0.25 h, 0.5 h, 1.0 h, 2.0 h, 4.0 h, 6.0 h, 8.0 h, 12.0 h and 24.0 h after administration, placed into EDTA-K2 anticoagulant tubes, and centrifuged at 10,000 rpm for 5 min (4° C.), and plasma was isolated within 1 h and stored at −80° C. before analysis. The blood collection to centrifugation process was performed under ice bath conditions. Three hours after administration, feeding was resumed.
Blood samples were collected from the animals in the intravenous injection group before administration and 5 min, 0.25 h, 0.5 h, 1.0 h, 2.0 h, 4.0 h, 8.0 h, 12.0 h and 24.0 h after administration and processed as in the intragastric administration group.
Determination of plasma concentrations in beagles after intragastric administration and intravenous injection of different concentrations of test compounds: 30 μL of beagle plasma at each time point post-dose was mixed with an internal standard solution (internal standard for the compound of Example 16: 100 ng/mL warfarin; internal standard for compound MYK-461: 100 ng/mL tolbutamide) and 300 μL of methanol; the mixture was vortexed for 1 min and centrifuged at 18,000 g for 7 min, and 200 μL of the supernatant was transferred to a 96-well plate; 1 μL of the supernatant was taken for LC/MS/MS analysis.

[2] = Toxicokinetic evaluation of 14-day repeated intragastric administration to SD rats; format: in vivo; conditions: both sexes, SD, rat, plasma, po; for Vd/F at 7 day: Day 7, read-out: Apparent volume of distribution Vz/F; for CL/F at 7 day: Day 7, read-out: Clearance CL/F; for half-life at 7 day: Day 7, read-out: Half-life T1/2 (converted); for MRT at 7 day: Day 7, read-out: Residence time MRT; for Vd/F at 14 day: Day 14, read-out: Apparent volume of distribution Vz/F; for CL/F at 14 day: Day 14, read-out: Clearance CL/F; for half-life at 14 day: Day 14, read-out: Half-life T1/2 (converted); for Cmax at 14 day: Day 14, read-out: Plasma concentration Cmax; for MRT at 14 day: Day 14, read-out: Residence time MRT
Protocol: With SD rats as test animals, the plasma concentrations of the test compounds and the concentrations of the original forms of the compounds in the administration solutions were measured by LC/MS/MS at different time points after intragastric administration. The toxicokinetic performance of the compound disclosed herein was studied in SD rats and its toxicokinetic profile was evaluated.
24 SD rats, an equal number of males and females, evenly divided into 6 groups of 4, an equal number of males and females in each group, provided by Vital River Laboratory Animal Technology Co., Ltd.
A certain amount of the compound of Example 16 was measured out, and 15% PEG400 and 85% (10% TPGS+1% HPMC K100LV) were added to prepare a pale yellow homogenous suspension.
A certain amount of compound MYK-461 was measured out, and 0.5% MC was added to prepare a colorless clear solution.
The compound of Example 16 was intragastrically administered at doses of 5 mg/kg, 15 mg/kg and 30 mg/kg, at a volume of 10 mL/kg.
Compound MYK-461 was administered at doses of 0.5 mg/kg, 1.5 mg/kg and 3 mg/kg, at a volume of 10 mL/kg.
0.2-mL blood samples were collected from the orbit 0.5 h, 1.0 h, 2.0 h, 4.0 h, 8.0 h and 24.0 h after administration on day 1, and before administration and 0.5 h, 1.0 h, 2.0 h, 4.0 h, 8.0 hi, 24.0 h after administration on day 7 and day 14, placed into EDTA-K2 anticoagulation tubes, and centrifuged at 10,000 rpm for 1 min (4° C.), and plasma was isolated within 1 h and stored at −20° C. before analysis. The blood collection to centrifugation process was performed under ice bath conditions. Two hours after administration, feeding was resumed.
Determination of plasma concentrations in SD rats after intragastric administration of different concentrations of test compounds: 20 μL of SD rat plasma at each time point post-dose was mixed with 50 μL of an internal standard solution (internal standard for the compound of Example 16: 100 ng/mL verapamil; internal standard for compound MYK-461: 100 ng(mL camptothecin) and 200 μL of acetonitrile; the mixture was vortexed for 5 min and centrifuged at 3700 rpm for 10 min, and 1 μL of the supernatant was taken for LC/MS/MS analysis.

[3] = both (Example 16), male (MYK-461), beagle, dog, plasma, intravenous injection, 0.5 mg/kg
[4] = both (Example 16), male (MYK-461), beagle, dog, plasma, po, intragastric administration, 2 mg/kg
[5] = intravenous injection, 0.5 mg/kg
[6] = 0.5 mg/kg, repeated intragastric 0.5 mg/kg
[7] = 1.5 mg/kg, repeated intragastric 1.5 mg/kg
[8] = 3 mg/kg, repeated intragastric 3.0 mg/kg

CC(C)n1c(=O)cc(N[C@@H](C)c2ccccc2)[nH]c1=O [MYK-461, reference compound]
T1/2 comparison (in words) [1]: longer T1/2 | AUC [1, 3]: 1380 ng·h/mL | half-life [1, 3]: 47.2 h | Cmax [1, 3]: 215 ng/mL | MRT [1, 3]: 72.2 h | Vd/F ([1]; both (Example 16), male (MYK-461), beagle, dog, plasma, po, intragastric administration, 2 mg/kg, read-out: Apparent volume of distribution Vz/F): 3.9 L/kg | AUC [1, 4]: 8720 ng·h/mL | CL/F ([1]; both (Example 16), male (MYK-461), beagle, dog, plasma, po, intragastric administration, 2 mg/kg, read-out: Clearance CL/F): 1.48 mL/min/kg | half-life [1, 4]: 38.9 h | Cmax [1, 4]: 1440 ng/mL | MRT [1, 4]: 59.2 h | Apparent volume of distribution Vz/F [1, 5]: 6.308 L/kg | Clearance CL/F [1, 5]: 1.63 mL/min/kg | Vd/F ([2]; 0.5 mg/kg, repeated intragastric 0.5 mg/kg, Day 1, read-out: Apparent volume of distribution Vz/F): 13.8 L/kg | AUC ([2]; 0.5 mg/kg, repeated intragastric 0.5 mg/kg, Day 1, read-out: Area under curve AUC): 491 ng·h/mL | CL/F ([2]; 0.5 mg/kg, repeated intragastric 0.5 mg/kg, Day 1, read-out: Clearance CL/F): 12.9 mL/min/kg | half-life ([2]; 0.5 mg/kg, repeated intragastric 0.5 mg/kg, Day 1, read-out: Half-life T1/2 (converted)): 13.3 h | Cmax ([2]; 0.5 mg/kg, repeated intragastric 0.5 mg/kg, Day 1, read-out: Plasma concentration Cmax): 40.2 ng/mL | MRT ([2]; 0.5 mg/kg, repeated intragastric 0.5 mg/kg, Day 1, read-out: Residence time MRT): 19 h | Vd/F at 7 day [2, 6]: 8.41 L/kg | AUC ([2]; 0.5 mg/kg, repeated intragastric 0.5 mg/kg, Day 7, read-out: Area under curve AUC): 888 ng·h/mL | CL/F at 7 day [2, 6]: 7.46 mL/min/kg | half-life at 7 day [2, 6]: 14.7 h | Cmax ([2]; 0.5 mg/kg, repeated intragastric 0.5 mg/kg, Day 7, read-out: Plasma concentration Cmax): 51.7 ng/mL | MRT at 7 day [2, 6]: 21.3 h | Vd/F at 14 day [2, 6]: 5.86 L/kg | AUC ([2]; 0.5 mg/kg, repeated intragastric 0.5 mg/kg, Day 14, read-out: Area under curve AUC): 1560 ng·h/mL | CL/F at 14 day [2, 6]: 3.06 mL/min/kg | half-life at 14 day [2, 6]: 32.9 h | Cmax at 14 day [2, 6]: 89.3 ng/mL | MRT at 14 day [2, 6]: 47.3 h | Vd/F at 1 day ([2]; 1.5 mg/kg, repeated intragastric 1.5 mg/kg, Day 1, read-out: Apparent volume of distribution Vz/F): 9.56 L/kg | AUC ([2]; 1.5 mg/kg, repeated intragastric 1.5 mg/kg, Day 1, read-out: Area under curve AUC): 2580 ng·h/mL | CL/F at 1 day ([2]; 1.5 mg/kg, repeated intragastric 1.5 mg/kg, Day 1, read-out: Clearance CL/F): 6.39 mL/min/kg | half-life at 1 day ([2]; 1.5 mg/kg, repeated intragastric 1.5 mg/kg, Day 1, read-out: Half-life T1/2 (converted)): 19.1 h | Cmax at 1 day ([2]; 1.5 mg/kg, repeated intragastric 1.5 mg/kg, Day 1, read-out: Plasma concentration Cmax): 140 ng/mL | MRT at 1 day ([2]; 1.5 mg/kg, repeated intragastric 1.5 mg/kg, Day 1, read-out: Residence time MRT): 28.2 h | Vd/F at 7 day [2, 7]: 4.8 L/kg | AUC ([2]; 1.5 mg/kg, repeated intragastric 1.5 mg/kg, Day 7, read-out: Area under curve AUC): 5180 ng·h/mL | CL/F at 7 day [2, 7]: 3.58 mL/min/kg | half-life at 7 day [2, 7]: 20.5 h | Cmax at 7 day ([2]; 1.5 mg/kg, repeated intragastric 1.5 mg/kg, Day 7, read-out: Plasma concentration Cmax): 269 ng/mL | MRT at 7 day [2, 7]: 30.2 h | Vd/F at 14 day [2, 7]: 5.03 L/kg | AUC ([2]; 1.5 mg/kg, repeated intragastric 1.5 mg/kg, Day 14, read-out: Area under curve AUC): 6320 ng·h/mL | CL/F at 14 day [2, 7]: 2.57 mL/min/kg | half-life at 14 day [2, 7]: 26.2 h | Cmax at 14 day [2, 7]: 333 ng/mL | MRT at 14 day [2, 7]: 38.5 h | Vd/F at 1 day ([2]; 3 mg/kg, repeated intragastric 3.0 mg/kg, Day 1, read-out: Apparent volume of distribution Vz/F): 8.93 L/kg | AUC ([2]; 3 mg/kg, repeated intragastric 3.0 mg/kg, Day 1, read-out: Area under curve AUC): 5210 ng·h/mL | CL/F at 1 day ([2]; 3 mg/kg, repeated intragastric 3.0 mg/kg, Day 1, read-out: Clearance CL/F): 4.91 mL/min/kg | half-life at 1 day ([2]; 3 mg/kg, repeated intragastric 3.0 mg/kg, Day 1, read-out: Half-life T1/2 (converted)): 28.5 h | Cmax at 1 day ([2]; 3 mg/kg, repeated intragastric 3.0 mg/kg, Day 1, read-out: Plasma concentration Cmax): 297 ng/mL | MRT at 1 day ([2]; 3 mg/kg, repeated intragastric 3.0 mg/kg, Day 1, read-out: Residence time MRT): 43.1 h | Vd/F at 7 day [2, 8]: 4.36 L/kg | AUC ([2]; 3 mg/kg, repeated intragastric 3.0 mg/kg, Day 7, read-out: Area under curve AUC): 12500 ng·h/mL | CL/F at 7 day [2, 8]: 1.97 mL/min/kg | half-life at 7 day [2, 8]: 190 h | Cmax at 7 day ([2]; 3 mg/kg, repeated intragastric 3.0 mg/kg, Day 7, read-out: Plasma concentration Cmax): 628 ng/mL | MRT at 7 day [2, 8]: 275 h | Vd/F at 14 day [2, 8]: 3.8 L/kg | AUC ([2]; 3 mg/kg, repeated intragastric 3.0 mg/kg, Day 14, read-out: Area under curve AUC): 16000 ng·h/mL | CL/F at 14 day [2, 8]: 1.3 mL/min/kg | half-life at 14 day [2, 8]: 46.5 h | Cmax at 14 day [2, 8]: 767 ng/mL | MRT at 14 day [2, 8]: 68.1 h
